Experiments:
Settings in all cases: Compound concentration 1000.0 nM
[1] = target: Serine/threonine-protein kinase pim-1 (Homo sapiens) (UniProt P11309)
[2] = target: Serine/threonine-protein kinase RIO3 (Homo sapiens) (UniProt O14730)
[3] = target: Cyclin-dependent kinase 13 (Homo sapiens) (UniProt Q14004)
[4] = target: Activin receptor type-2B (Homo sapiens) (UniProt Q13705)
[5] = target: Ephrin type-B receptor 3 (Homo sapiens) (UniProt P54753)
[6] = target: Myosin-IIIa (Homo sapiens) (UniProt Q8NEV4)
[7] = target: Casein kinase I isoform alpha (Homo sapiens) (UniProt P48729)
[8] = target: Serine/threonine-protein kinase SIK3 (Homo sapiens) (UniProt Q9Y2K2)
Sequence of Serine/threonine-protein kinase SIK3 (Homo sapiens) (Q9Y2K2 whole entry, looked up): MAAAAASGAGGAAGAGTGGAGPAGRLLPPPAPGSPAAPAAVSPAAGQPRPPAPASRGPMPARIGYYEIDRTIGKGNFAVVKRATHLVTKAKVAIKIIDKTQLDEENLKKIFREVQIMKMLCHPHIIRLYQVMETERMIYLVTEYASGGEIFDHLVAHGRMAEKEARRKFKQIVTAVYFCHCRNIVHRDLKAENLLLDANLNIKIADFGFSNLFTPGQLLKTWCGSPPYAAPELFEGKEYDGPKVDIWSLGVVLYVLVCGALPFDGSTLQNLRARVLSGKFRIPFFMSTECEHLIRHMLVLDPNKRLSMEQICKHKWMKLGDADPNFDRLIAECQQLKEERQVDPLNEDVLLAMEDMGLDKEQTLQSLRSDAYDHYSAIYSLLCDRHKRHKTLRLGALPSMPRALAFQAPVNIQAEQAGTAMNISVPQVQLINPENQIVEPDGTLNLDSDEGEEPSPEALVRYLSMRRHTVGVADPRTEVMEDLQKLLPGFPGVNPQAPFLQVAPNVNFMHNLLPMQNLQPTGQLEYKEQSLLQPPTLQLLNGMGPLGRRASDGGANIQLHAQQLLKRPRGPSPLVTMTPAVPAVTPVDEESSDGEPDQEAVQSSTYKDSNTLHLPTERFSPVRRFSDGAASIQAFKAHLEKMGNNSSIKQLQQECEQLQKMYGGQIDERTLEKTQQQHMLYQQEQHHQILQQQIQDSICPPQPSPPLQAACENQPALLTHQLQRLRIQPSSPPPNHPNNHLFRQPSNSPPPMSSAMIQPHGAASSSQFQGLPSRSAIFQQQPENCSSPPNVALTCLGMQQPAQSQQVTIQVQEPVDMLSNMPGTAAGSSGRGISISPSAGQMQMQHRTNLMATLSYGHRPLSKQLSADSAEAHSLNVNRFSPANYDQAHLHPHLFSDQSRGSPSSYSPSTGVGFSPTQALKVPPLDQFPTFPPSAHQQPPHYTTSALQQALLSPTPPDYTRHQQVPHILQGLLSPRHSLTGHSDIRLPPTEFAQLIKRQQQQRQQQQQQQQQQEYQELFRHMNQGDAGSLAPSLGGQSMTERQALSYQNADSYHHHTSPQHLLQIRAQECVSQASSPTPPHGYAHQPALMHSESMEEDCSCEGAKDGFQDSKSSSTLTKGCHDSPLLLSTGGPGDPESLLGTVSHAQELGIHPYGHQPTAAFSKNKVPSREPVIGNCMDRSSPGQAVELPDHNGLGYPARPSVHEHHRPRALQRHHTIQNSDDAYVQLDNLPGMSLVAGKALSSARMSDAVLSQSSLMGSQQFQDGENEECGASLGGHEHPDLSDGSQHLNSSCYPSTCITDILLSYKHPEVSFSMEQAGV

[9] = target: Serine/threonine-protein kinase Nek3 (Homo sapiens) (UniProt P51956)
[10] = target: Homeodomain-interacting protein kinase 2 (Homo sapiens) (UniProt Q9H2X6)
[11] = target: Phosphatidylinositol 5-phosphate 4-kinase type-2 gamma (Homo sapiens) (UniProt Q8TBX8)
[12] = target: Calcium/calmodulin-dependent protein kinase type II subunit beta (Homo sapiens) (UniProt Q13554)
[13] = system: Receptor-type tyrosine-protein kinase FLT3 (Homo sapiens), P36888 [D835H]
[14] = system: Tyrosine-protein kinase ABL1 (Homo sapiens), P00519 [F317L]
[15] = target: Ribosomal protein S6 kinase alpha-3 (Homo sapiens) (UniProt P51812)
Sequence of Ribosomal protein S6 kinase alpha-3 (Homo sapiens) (P51812 whole entry): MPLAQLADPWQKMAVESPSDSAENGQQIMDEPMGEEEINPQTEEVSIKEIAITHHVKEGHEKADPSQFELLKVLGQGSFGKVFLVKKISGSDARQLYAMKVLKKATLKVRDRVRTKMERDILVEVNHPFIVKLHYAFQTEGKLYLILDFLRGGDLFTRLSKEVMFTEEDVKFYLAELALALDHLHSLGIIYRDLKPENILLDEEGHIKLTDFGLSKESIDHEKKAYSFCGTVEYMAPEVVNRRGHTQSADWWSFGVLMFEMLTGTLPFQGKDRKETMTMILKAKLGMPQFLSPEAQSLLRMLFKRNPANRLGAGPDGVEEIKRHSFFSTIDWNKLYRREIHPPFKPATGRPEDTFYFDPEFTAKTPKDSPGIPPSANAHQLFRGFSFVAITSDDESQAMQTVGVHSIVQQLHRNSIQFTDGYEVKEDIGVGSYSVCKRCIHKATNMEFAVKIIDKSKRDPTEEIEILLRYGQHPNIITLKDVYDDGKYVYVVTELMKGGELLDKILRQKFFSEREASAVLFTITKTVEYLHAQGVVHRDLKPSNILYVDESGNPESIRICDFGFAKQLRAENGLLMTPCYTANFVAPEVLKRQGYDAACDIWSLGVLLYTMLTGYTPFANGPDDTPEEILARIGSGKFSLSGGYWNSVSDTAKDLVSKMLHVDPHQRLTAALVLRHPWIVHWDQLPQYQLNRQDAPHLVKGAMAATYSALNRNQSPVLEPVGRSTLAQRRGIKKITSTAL

[16] = target: Cyclin-dependent kinase 8 (Homo sapiens) (UniProt P49336)
[17] = target: Casein kinase II subunit alpha (Homo sapiens) (UniProt P68400)
[18] = target: Mitogen-activated protein kinase 11 (Homo sapiens) (UniProt Q15759)
[19] = target: Epithelial discoidin domain-containing receptor 1 (Homo sapiens) (UniProt Q08345)
[20] = target: Ribosomal protein S6 kinase alpha-1 (Homo sapiens) (UniProt Q15418)
Sequence of Ribosomal protein S6 kinase alpha-1 (Homo sapiens) (Q15418 whole entry): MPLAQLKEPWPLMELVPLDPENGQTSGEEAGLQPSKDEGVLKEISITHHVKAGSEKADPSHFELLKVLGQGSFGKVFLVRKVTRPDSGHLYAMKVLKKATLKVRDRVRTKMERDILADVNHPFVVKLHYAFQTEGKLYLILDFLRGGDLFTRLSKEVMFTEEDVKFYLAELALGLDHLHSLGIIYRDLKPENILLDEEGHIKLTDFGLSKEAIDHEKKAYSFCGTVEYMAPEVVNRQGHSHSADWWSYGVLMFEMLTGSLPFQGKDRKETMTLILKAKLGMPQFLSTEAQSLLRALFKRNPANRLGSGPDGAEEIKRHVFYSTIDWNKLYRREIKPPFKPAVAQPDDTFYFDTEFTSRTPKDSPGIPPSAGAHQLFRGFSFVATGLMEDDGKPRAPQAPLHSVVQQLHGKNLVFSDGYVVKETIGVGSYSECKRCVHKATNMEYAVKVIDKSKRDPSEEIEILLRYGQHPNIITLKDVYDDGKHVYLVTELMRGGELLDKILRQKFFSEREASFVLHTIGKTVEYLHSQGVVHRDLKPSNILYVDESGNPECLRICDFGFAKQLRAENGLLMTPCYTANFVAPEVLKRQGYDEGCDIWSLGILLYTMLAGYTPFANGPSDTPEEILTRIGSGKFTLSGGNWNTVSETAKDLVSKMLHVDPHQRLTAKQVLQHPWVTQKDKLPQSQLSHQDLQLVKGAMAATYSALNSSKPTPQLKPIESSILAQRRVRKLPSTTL

[21] = target: Tyrosine-protein kinase Lck (Homo sapiens) (UniProt P06239)
[22] = target: Mitogen-activated protein kinase kinase kinase kinase 4 (Homo sapiens) (UniProt O95819)
Sequence of Mitogen-activated protein kinase kinase kinase kinase 4 (Homo sapiens) (O95819 2-1239 limits assumed): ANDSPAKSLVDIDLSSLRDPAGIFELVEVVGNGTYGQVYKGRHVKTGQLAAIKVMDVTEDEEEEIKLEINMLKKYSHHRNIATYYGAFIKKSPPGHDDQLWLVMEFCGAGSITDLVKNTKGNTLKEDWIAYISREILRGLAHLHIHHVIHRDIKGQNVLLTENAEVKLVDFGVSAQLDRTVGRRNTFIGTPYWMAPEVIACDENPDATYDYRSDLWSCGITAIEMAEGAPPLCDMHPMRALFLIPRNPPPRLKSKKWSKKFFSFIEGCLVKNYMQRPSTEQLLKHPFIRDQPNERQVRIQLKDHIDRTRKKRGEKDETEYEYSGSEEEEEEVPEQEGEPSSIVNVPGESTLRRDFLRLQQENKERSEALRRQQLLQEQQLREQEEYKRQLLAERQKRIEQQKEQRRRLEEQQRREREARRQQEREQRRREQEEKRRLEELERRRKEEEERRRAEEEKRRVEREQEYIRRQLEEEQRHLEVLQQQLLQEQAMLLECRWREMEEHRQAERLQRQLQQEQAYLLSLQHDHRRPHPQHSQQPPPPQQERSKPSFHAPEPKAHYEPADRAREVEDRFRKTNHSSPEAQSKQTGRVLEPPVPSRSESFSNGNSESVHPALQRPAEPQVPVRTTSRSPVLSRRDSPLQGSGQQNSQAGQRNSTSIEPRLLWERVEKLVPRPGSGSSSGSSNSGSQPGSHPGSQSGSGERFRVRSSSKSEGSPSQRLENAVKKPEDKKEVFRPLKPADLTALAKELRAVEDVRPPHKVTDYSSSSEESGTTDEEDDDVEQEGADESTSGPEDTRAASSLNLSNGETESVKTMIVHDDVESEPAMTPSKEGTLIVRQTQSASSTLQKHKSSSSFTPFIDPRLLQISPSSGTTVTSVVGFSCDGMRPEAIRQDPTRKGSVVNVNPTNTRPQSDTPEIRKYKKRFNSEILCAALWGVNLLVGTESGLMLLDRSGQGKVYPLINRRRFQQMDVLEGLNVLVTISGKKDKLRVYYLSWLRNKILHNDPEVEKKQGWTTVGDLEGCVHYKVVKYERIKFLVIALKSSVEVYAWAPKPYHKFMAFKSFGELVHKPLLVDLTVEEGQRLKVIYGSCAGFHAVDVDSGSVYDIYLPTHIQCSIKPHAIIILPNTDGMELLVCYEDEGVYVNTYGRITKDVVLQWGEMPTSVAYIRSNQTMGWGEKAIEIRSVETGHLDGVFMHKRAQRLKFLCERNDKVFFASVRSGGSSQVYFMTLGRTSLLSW

[23] = target: Serine/threonine-protein kinase PAK 3 (Homo sapiens) (UniProt O75914)
[24] = system: Phosphatidylinositol 4,5-bisphosphate 3-kinase catalytic subunit alpha isoform (Homo sapiens), P42336 [I800L]
[25] = target: Serine/threonine-protein kinase DCLK2 (Homo sapiens) (UniProt Q8N568)
[26] = target: Cyclin-dependent kinase 2 homolog (Plasmodium falciparum (isolate 3D7)) (UniProt P61075)
[27] = target: Serine/threonine-protein kinase D3 (Homo sapiens) (UniProt O94806)
[28] = system: Epidermal growth factor receptor (Homo sapiens), P00533 [L858R]
[29] = target: Serine/threonine-protein kinase PLK1 (Homo sapiens) (UniProt P53350)
[30] = system: Mast/stem cell growth factor receptor Kit (Homo sapiens), P10721 [L576P]
[31] = system: Receptor-type tyrosine-protein kinase FLT3 (Homo sapiens), P36888 [UNDEFINED MUTATION]
[32] = target: MAP kinase-activated protein kinase 2 (Homo sapiens) (UniProt P49137)
[33] = target: Dual specificity protein kinase CLK1 (Homo sapiens) (UniProt P49759)
[34] = target: Tyrosine-protein kinase JAK1 (Homo sapiens) (UniProt P23458)
[35] = target: Serine/threonine-protein kinase MRCK gamma (Homo sapiens) (UniProt Q6DT37)
[36] = system: Serine/threonine-protein kinase B-raf (Homo sapiens), P15056 [V600E]
[37] = system: Tyrosine-protein kinase ABL1 (Homo sapiens), P00519 [T315I]
[38] = system: Receptor-type tyrosine-protein kinase FLT3 (Homo sapiens), P36888 [D835V]
[39] = target: Serine/threonine-protein kinase haspin (Homo sapiens) (UniProt Q8TF76)
Sequence of Serine/threonine-protein kinase haspin (Homo sapiens) (Q8TF76 whole entry): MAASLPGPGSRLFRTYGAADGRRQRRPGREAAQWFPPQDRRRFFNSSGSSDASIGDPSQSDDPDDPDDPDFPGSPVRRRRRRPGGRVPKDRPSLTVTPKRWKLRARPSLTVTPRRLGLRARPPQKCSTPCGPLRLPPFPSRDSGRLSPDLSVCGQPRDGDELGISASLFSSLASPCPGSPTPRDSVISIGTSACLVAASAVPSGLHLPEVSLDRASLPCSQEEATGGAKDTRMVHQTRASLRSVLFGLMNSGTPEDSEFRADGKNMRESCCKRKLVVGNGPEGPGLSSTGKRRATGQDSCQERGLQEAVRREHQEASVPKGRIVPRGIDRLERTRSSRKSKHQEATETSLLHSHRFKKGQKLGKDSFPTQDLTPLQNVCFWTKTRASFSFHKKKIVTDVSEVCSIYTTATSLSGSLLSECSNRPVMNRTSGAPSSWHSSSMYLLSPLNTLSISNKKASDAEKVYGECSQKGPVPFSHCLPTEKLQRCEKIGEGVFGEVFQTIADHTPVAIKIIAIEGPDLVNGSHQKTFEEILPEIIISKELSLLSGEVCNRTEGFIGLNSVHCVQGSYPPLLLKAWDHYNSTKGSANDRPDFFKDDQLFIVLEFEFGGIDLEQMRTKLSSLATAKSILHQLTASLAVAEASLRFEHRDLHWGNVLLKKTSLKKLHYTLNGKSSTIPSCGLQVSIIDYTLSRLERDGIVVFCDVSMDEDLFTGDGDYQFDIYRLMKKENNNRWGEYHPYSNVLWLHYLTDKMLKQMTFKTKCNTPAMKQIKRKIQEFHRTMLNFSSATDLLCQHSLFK

[40] = system: Epidermal growth factor receptor (Homo sapiens), P00533 [UNDEFINED MUTATION]
[41] = target: Cyclin-dependent kinase 2 (Homo sapiens) (UniProt P24941)
[42] = target: Macrophage colony-stimulating factor 1 receptor (Homo sapiens) (UniProt P07333)
[43] = target: Death-associated protein kinase 2 (Homo sapiens) (UniProt Q9UIK4)
[44] = target: Ribosomal protein S6 kinase beta-1 (Homo sapiens) (UniProt P23443)
[45] = target: Receptor tyrosine-protein kinase erbB-2 (Homo sapiens) (UniProt P04626)

Measured: residual activity

CCS(=O)(=O)c1cc2cc(C[C@@](O)(CC(C)(C)c3ccc(F)cc3C(N)=O)C(F)(F)F)[nH]c2cn1
inactive: [1] 97% | [2] 74% | [3] 91% | [4] 100% | [5] 92% | [6] 80% | [7] 86% | [8] 81% | [9] 100% | [10] 100% | [11] 100% | [12] 100% | [13] 100% | [14] 61% | [15] 100% | [16] 100% | [17] 75% | [18] 100% | [19] 100% | [20] 100% | [21] 81% | [22] 85% | [23] 100% | [24] 70% | [25] 100% | [26] 100% | [27] 100% | [28] 90% | [29] 85% | [30] 100% | [31] 86% | [32] 100% | [33] 100% | [34] 90% | [35] 96% | [36] 100% | [37] 67% | [38] 79% | [39] 80% | [40] 79% | [41] 96% | [42] 94% | [43] 100% | [44] 80% | [45] 100%

CCS(=O)(=O)c1cc2cc(C[C@](O)(CC(C)(C)c3ccc(F)cc3C(N)=O)C(F)(F)F)[nH]c2cn1
inactive: [1] 100% | [2] 91% | [3] 100% | [4] 98% | [5] 100% | [6] 94% | [7] 100% | [8] 85% | [9] 100% | [10] 100% | [11] 100% | [12] 97% | [13] 100% | [14] 90% | [15] 93% | [16] 100% | [17] 100% | [18] 100% | [19] 94% | [20] 100% | [21] 100% | [22] 92% | [23] 100% | [24] 73% | [25] 100% | [26] 100% | [27] 99% | [28] 100% | [29] 100% | [30] 83% | [31] 95% | [32] 100% | [33] 99% | [34] 95% | [35] 100% | [36] 100% | [37] 100% | [38] 95% | [39] 100% | [40] 93% | [41] 94% | [42] 100% | [43] 90% | [44] 82% | [45] 100%

From ChEMBL document CHEMBL4507277
